Read-outs that look alike come from different tables or passages of the source.
How the values were obtained:
Histamine H3 receptor [1] = target: T1, Histamine H3 receptor (Cavia porcellus, UniProt Q9JI35); assay: Histamine H3 radioligand binding assay, guinea pig cortex ([3H]-R-α-methylhistamine); design: The cortex was dissected, weighed and homogenised in ice-cold 20 mM Hepes-NaOH buffer; from tissue; host or cells: guinea pig cerebral cortex membranes
Description: Histamine H3 Radioligand Binding Assay—Guinea Pig Cortex
Male Dunkin Hartley guinea pigs (200-300 g) were used. The whole brain was removed and immediately placed in ice-cold 20 mM Hepes-NaOH buffer (pH7.4 at 21±3° C.). The cortex was dissected, weighed and homogenised in ice-cold 20 mM Hepes-NaOH buffer (pH7.4 at 21±3° C.) (50 ml/guinea-pig cortex) using a polytron (Kinematica AG; PT-DA 3020/2TS, 3×3 s). The homogenate was centrifuged at 100×g for 5 min and the supernatants pooled and stored at 4° C. The pellets were rehomogenised in fresh ice-cold buffer (80 ml) and recentrifuged (100×g for 5 min). The supernatants were pooled and pellets rehomogenised and recentrifuged (100×g for 5 min). All supernatants were pooled and centrifuged at 39,800×g for 12 min at 4° C. The final pellet was resuspended in 20 mM Hepes-NaOH buffer (pH7.4 at 21±3° C.) to a tissue concentration of 7.5 mg.ml^−1, using a teflon-in-glass homogeniser.
Incubation Conditions and Data Analysis
These were essentially identical to those used for the guinea pig ileum myenteric plexus assay described above, except that the final assay concentration of [^3H]-R-α-methylhistamine was 0.1 nM. Typical variance in this assay is ±0.12 log units.

Histamine H3 receptor [2] = target: T1, Histamine H3 receptor; assay: ileal longitudinal muscle, myenteric plexus functional assay (rightward shift of R-(α)-methylhistamine E/[A] curves, Schild); assay type: cell-based; design: the longitudinal muscle layer and adhering myenteric plexus was teased away; from tissue; host or cells: guinea pig ileal longitudinal muscle with myenteric plexus (organ bath); details: guinea pig ileum longitudinal muscle myenteric plexus, electrically stimulated; antagonism of R-(α)-methylhistamine; typical variance ±0.15 log units; read-out: pKB (functional assay) - ileum (converted)
Description: The biological activity of the compounds of the examples was measured using the ileal longitudinal muscle, myenteric plexus assay described by Paton and Aboo Zar (J. Physiol. 1968, 194, 13-33). Male Dunkin-Hartley guinea pigs (250-300 g) were employed. Briefly, a 50 cm portion of ileum proximal to the caecum was removed, after discarding the terminal 20 cm. Ileal segments (3 cm) were cleaned by passing Krebs-Henseleit buffer containing 3 μM mepyramine gently through the ileum using a Pasteur pipette (size: 13.8 cm length, 0.65 cm diameter). To avoid unnecessary damage to the tissue, Krebs-Henseleit buffer was passed through the ileal segment, while it was lying horizontally on a petri dish. Therefore, the ileum was not over-distended and the buffer flowed through with ease. Each segment was then passed over a Pasteur pipette and the longitudinal muscle layer and adhering myenteric plexus was teased away using moist cotton wool, by stroking tangentially away from the mesenteric attachment. The tissues were suspended in 20 ml organ baths containing Krebs-Henseleit buffer at 37±1° C. and gassed with 95% CO2/5% O2. The tissues were ligated to two parallel stainless steel wires, situated between two platinum electrodes (0.76 cm length, 0.06 cm diameter). All measurements were recorded isometrically (Grass FTO3 transducer). Following an initial loading tension of 1 g, the tissues were stimulated with electrical pulses at a frequency of 0.1 Hz and a pulse duration of 0.5 msec, as described by Kosterlitz & Watt (Br. J. Pharmacol. 1968, 266-276). Initially, the tissues were stimulated at supramaximal (1.3 fold times maximal) voltage for a period of 30 min and then the tissues were washed and re-stimulated. A “sighter dose” of the selective histamine H3-receptor agonist, R-(α)-methylhistamine (0.3 μM) (Arrang et al. Nature, 1987, 117-123), was administered. Upon generation of response, the “sighter dose” was removed from the tissues by “washout” (6 washes over 60 min) and during this period the electrical stimulation was switched off. The tissues were then re-stimulated and allowed to stabilise prior to the addition of drug treatments, which were allocated on a randomised block basis to the organ baths. Following the incubation period, a single cumulative E/[A] curve was obtained. The experimental E/[A] curve data was expressed as the percentage inhibition of the peak height of electrically-stimulated contraction. Antagonist affinity values were calculated from the degree of rightward shift of the R-(α)-methylhistamine E/[A] curves using Schild's methods (Arunlakshana & Schild Br. J. Pharmacol. 1959, 48-58). Typical variance in this assay is ±0.15 log units.

[3] = guinea pig cortex membranes, [3H]-R-α-methylhistamine 0.1 nM, typical variance ±0.12 log units, read-out: pKI (binding assay) - cortex (converted)

T1 sequence (Q9JI35 whole entry): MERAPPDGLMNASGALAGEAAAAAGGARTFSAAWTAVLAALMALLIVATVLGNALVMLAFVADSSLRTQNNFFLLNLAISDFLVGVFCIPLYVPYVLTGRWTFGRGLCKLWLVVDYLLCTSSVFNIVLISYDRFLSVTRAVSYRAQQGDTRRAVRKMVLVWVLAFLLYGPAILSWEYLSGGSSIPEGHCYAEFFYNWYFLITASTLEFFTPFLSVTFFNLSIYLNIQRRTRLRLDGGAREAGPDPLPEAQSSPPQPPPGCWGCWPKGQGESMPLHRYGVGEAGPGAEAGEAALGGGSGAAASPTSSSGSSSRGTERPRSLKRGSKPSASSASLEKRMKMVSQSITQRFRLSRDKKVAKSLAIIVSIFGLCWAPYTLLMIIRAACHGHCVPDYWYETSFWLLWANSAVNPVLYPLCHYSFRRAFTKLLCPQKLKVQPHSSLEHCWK

Ki (Histamine H3 receptor [1]; [3])	Kb (Histamine H3 receptor [2])	Structure (SMILES)	Ki (Histamine H3 receptor [1])
275 nM	240 nM	O=S(=O)(CC(O)CCc1c[nH]cn1)NCc1ccc(Cl)cc1 (stereo not drawn) [Example 2, N-(4-Chlorobenzyl)-2-hydroxy-4-(1H-imidazol-4-yl)-1-butanesulfonamide]	–
61.7 nM	257 nM	O=C(CCc1c[nH]cn1)CS(=O)(=O)NCc1ccc(Cl)cc1 [Example 4, N-(4-Chlorobenzyl)-2-oxy-4-(1H-imidazol-4-yl)-1-butanesulfonamide]	–
2.88 nM	5.13 nM	O=S(=O)(CCCCCCc1c[nH]cn1)NCc1ccc(Cl)cc1 [Example 7, N-(4-Chlorobenzyl)-6-(1H-imidazol-4-yl)-1-hexanesulfonamide]	–
4.27 nM	12.6 nM	O=S(=O)(CC(O)CCCCc1c[nH]cn1)NCc1ccc(Cl)cc1 (stereo not drawn) [Example 8, N-(4-Chlorobenzyl)-2-hydroxy-6-(1H-imidazol-4-yl)-1-hexanesulfonamide]	–
44.7 nM	302 nM	O=S(=O)(CCCCc1c[nH]cn1)NCCc1ccc(Cl)cc1 [Example 9, N-(4-Chlorophenethyl)-4-(1H-imidazol-4-yl)-1-butanesulfonamide]	–
741 nM	–	O=S(=O)(CC(O)CCc1c[nH]cn1)NCCc1ccc(Cl)cc1 (stereo not drawn) [Example 10, N-(4Chlorophenethyl)-2-hydroxy-4-(1H-imidazol-4-yl)-1-butanesulfonamide]	–
7.24 nM	29.5 nM	O=S(=O)(CCCCCc1c[nH]cn1)NCCc1ccc(Cl)cc1 [Example 11, N-(4-Chlorophenethyl)-5-(1H-imidazol-4-yl)-1-pentanesulfonamide]	–
81.3 nM	724 nM	O=S(=O)(CC(O)CCCc1c[nH]cn1)NCc1ccccc1 (stereo not drawn) [Example 14, N-Benzyl-2-hydroxy-5-(1H-imidazol-4-yl)-1-pentanesulfonamide]	–
0.891 nM	3.39 nM	O=S(=O)(CCCCCc1c[nH]cn1)NCc1ccc(Br)cc1 [Example 15, N-(4-Bromobenzyl)-5-(1H-imidazol-4-yl)-1-pentanesulfonamide]	–
1.12 nM	18.2 nM	O=S(=O)(CC(O)CCCc1c[nH]cn1)NCc1ccc(Br)cc1 (stereo not drawn) [Example 16, N-(4-Bromobenzyl)-2-hydroxy-5-(1H-imidazol-4-yl)-1-pentanesulfonamide]	–
21.9 nM	46.8 nM	O=S(=O)(CCCCCc1c[nH]cn1)NCC1CCCCC1 [Example 17, N-Cyclohexylmethyl-5-(1H-imidazol-4-yl)-1-pentanesulfonamide]	–
141 nM	389 nM	O=S(=O)(CC(O)CCCc1c[nH]cn1)NCC1CCCCC1 (stereo not drawn) [Example 18, N-Cyclohexylmethyl-2-hydroxy-5-(1H-imidazol-4-yl)-1-pentanesulfonamide]	–
19.5 nM	245 nM	O=S(=O)(CCCCCc1c[nH]cn1)NCc1ccccc1Cl [Example 19, N-(2-Chlorobenzyl)-5-(1H-imidazol-4-yl)-1-pentanesulfonamide]	–
126 nM	331 nM	O=S(=O)(CC(O)CCCc1c[nH]cn1)NCc1ccccc1Cl (stereo not drawn) [Example 20, N-(2-Chlorobenzyl)-2-hydroxy-5-(1H-imidazol-4-yl)-1-pentanesulfonamide]	–
12 nM	58.9 nM	O=S(=O)(CCCCCc1c[nH]cn1)NCc1cccc(Cl)c1 [Example 21, N-(3-Chlorobenzyl)-5-(1H-imidazol-4-yl)-1-pentanesulfonamide]	–
28.8 nM	79.4 nM	O=S(=O)(CC(O)CCCc1c[nH]cn1)NCc1cccc(Cl)c1 (stereo not drawn) [Example 22, N-(3-Chlorobenzyl)-2-hydroxy-5-(1H-imidazol-4-yl)-1-pentanesulfonamide]	–
7.08 nM	19.1 nM	O=S(=O)(CCCCCc1c[nH]cn1)NCc1ccc(F)cc1 [Example 28, N-(4-Fluorobenzyl)-5-(1H-imidazol-4-yl)-1-pentanesulfonamide]	–
6.17 nM	25.7 nM	Cc1ccc(CNS(=O)(=O)CCCCCc2c[nH]cn2)cc1 [Example 29, N-(4-Methylbenzyl)-5-(1H-imidazol-4-yl)-1-pentanesulfonamide]	–
1.51 nM	9.33 nM	O=S(=O)(CCCCCc1c[nH]cn1)NCc1ccc(C(F)(F)F)cc1 [Example 30, N-(4-Trifluoromethylbenzyl)-5-(1H-imidazol-4-yl)-1-pentanesulfonamide]	–
186 nM	174 nM	O=S(=O)(CCCCCc1c[nH]cn1)NCC12CC3CC(CC(C3)C1)C2 [Example 31, N-(1-Adamantylmethyl)-5-(1H-imidazol-4-yl)-1-pentanesulfonamide]	–
5.89 nM	25.1 nM	O=S(=O)(/C=C/CCCc1c[nH]cn1)NCc1ccc(Cl)cc1 [Example 32, (E)-N-(4-Chlorobenzyl)-5-(1H-imidazol-4-yl)-1-pent-1-enesulfonamide]	–
0.851 nM	4.68 nM	O=S(=O)(C/C=C/CCc1c[nH]cn1)NCc1ccc(Cl)cc1 [Example 33, (E)-N-(4-Chlorobenzyl)-5-(1H-imidazol-4-yl)-1-pent-2-enesulfonamide]	–
10.2 nM	17.4 nM	CN(Cc1ccc(Cl)cc1)S(=O)(=O)CCCCCc1c[nH]cn1 [Example 34, N-(4-Chlorobenzyl)-N-methyl-5-(1H-imidazol-4-yl)-1-pentanesulfonamide]	–
18.2 nM	151 nM	NCCCN(Cc1ccc(Cl)cc1)S(=O)(=O)CCCCCc1c[nH]cn1 [Example 35, N-(4-Chlorobenzyl)-N-(3-aminopropyl)-5-(1H-imidazol-4-yl)-1-pentanesulfonamide]	–
200 nM	1550 nM	O=S(=O)(CCCCCc1c[nH]cn1)N(Cc1ccccc1)Cc1ccc(Cl)cc1 [Example 36, N-Benzyl-N-(4-chlorobenzyl)-5-(1H-imidazol-4-yl)-1-pentanesulfonamide]	–
6.61 nM	20.4 nM	O=[N+]([O-])CC(CCCc1c[nH]cn1)CS(=O)(=O)NCc1ccc(Cl)cc1 (stereo not drawn) [Example 37, N-(4-Chlorobenzyl)-2-nitromethyl-5-(1H-imidazol-4-yl)-1-pentanesulfonamide]	–
22400 nM	–	NC(CCCc1c[nH]cn1)CS(=O)(=O)NCc1ccc(Cl)cc1 (stereo not drawn) [Example 40, 2-Amino-N-(4-chlorobenzyl)-5-(1H-imidazol-4-yl)-1-pentanesulfonamide]	–

Structure (SMILES)	Ki (Histamine H3 receptor [1]; [3])	Kb (Histamine H3 receptor [2])	Ki (Histamine H3 receptor [1])
O=S(=O)(CCCCCc1c[nH]cn1)NCc1ccccc1 [Example 13, N-Benzyl-5-(1H-imidazol-4-yl)-1-pentanesulfonamide]	8.91 nM	58.9 nM	–
O=S(=O)(CCCCc1c[nH]cn1)CCc1ccccc1 [Example 23, [4-(1H-Imidazol-4-yl)butyl]phenethyl sulfone]	–	214 nM	47.9 nM
O=S(=O)(CCCCc1c[nH]cn1)CCc1ccc(Cl)cc1 [Example 24, [4-(1H-Imidazol-4-yl)butyl] 4-chlorophenethyl sulfone]	5.62 nM	10.7 nM	–
O=S(=O)(CCCCc1c[nH]cn1)Cc1ccc(Cl)cc1 [Example 25, [4-(1H-Imidazol-4-yl)butyl]-4-chlorobenzyl sulfone]	18.6 nM	30.2 nM	–
